Values after ≈ are worked out from the molar mass of the structure shown.
Key:
[1] = DPPH free radical scavenging assay; conditions: for DPPH IC50: 30 min, 517 nm
Experimental: The free radical scavenging activities of the extracts, peperomin A and phytosterol mixture were estimated using the 1,1-diphenyl-2-picryl-hydrazyl (DPPH) assay. Quantitative estimation was done in 96-well ELISA plates in triplicate. Complete of 70 µL of DMSO was brought for each well followed by 100 µL of plant extract solution or isolated tested compounds. Various concentrations of each extract and peperomin A (15.6 –1,000 µg/mL) were used. Similar concentrations of ascorbic acid were used as positive control. A total of 30 µL DPPH (3.14 X 10^−3 µM) was added to each well, then the plate was allowed to stand in the dark at 25 °C for 30 min, and the absorbance was later recorded taken at 517 nm. The free radical scavenging activity was calculated using the following equation: Free radical scavenging activity%=Abs of DPPH−Abs of sample∕Abs of DPPH×100%. where Abs is absorbance. The relationship between each concentration and its scavenging percentage was plotted, and the IC50 value was calculated by interpolation. Scavenging activity was represented by IC50 values (the extract concentration that scavenges 50% of DPPH radicals).

[2] = FRAP ferric reducing assay; conditions: for FRAP: 593 nm
Experimental: The antioxidant power of P. blanda extracts by ferric reduction was done by preparing fresh FRAP reagent from acetate buffer (pH 3.6), a solution of 10 mM TPTZ (2,4,6-tri(2-pyridyl)-s-triazine) in 40 mM HCl and a solution of 20 mM iron (III) chloride in a ratio of 10:1:1 (%v/v) ([Brand-Williams, Cuvelier & Berset, 1995]; [Mohammadzadeh et al., 2007]; [Mothana et al., 2009]; [Salazar-Aranda et al., 2011]), butylated hydroxytoluene (BHT), and ascorbic acid were used as controls. Then, 10 µL of plant extracts, peperomin A, ferrous sulfate (standard) and the controls were added to 300 µL FRAP reagent (triplicate) in the dark and the absorbance was measured at 593 nm. A linear standard curve was constructed using […] FeSO4. The results were represented as the ratio of the concentration of iron(III) mM over the extract dry weight (g).

[3] = test system: human promyelocytic leukaemia (HL-60); test: MTT cytotoxicity assay, HL-60; format: cell-based
Text: (§1) In vitro cytotoxic potency of the investigated extracts was established using the colorimetric (MTT) assay. The three cancer cell lines involved were the human breast adenocarcinoma (MCF-7), murine myelomonocytic leukaemia (WEHI-3) and human promyelocytic leukaemia (HL-60). The three normal cell lines used were the human mammary epithelial cell line (MCF10A), primary dermal fibroblasts cell line (HDFa) and the human hepatic cell line (WRL-68). All cells were from American Type Culture Collection (ATCC) and were subcultured in tissue culture flask (75 cm) with RPMI1640 media mixed with 10% fetal bovine serum and 1% penicillin–streptomycin and kept in an incubator at 5% of CO2 saturation and 37 °C. The following solutions were prepared: crude extracts (dissolved in 1% DMSO) at various concentrations (100, 50, 25, 12.5, 6.3, 3.5, 1.5 and 0 µg/mL); and peperomin A, phytosterol mixture and standard drugs (Taxol and vinblastine) as positive controls at decreasing concentrations (50, 25, 12.5, 6.3, 3.5, 1.5, and 0 µg/mL). N,N′-diphenethyloxamide was not involved in the biological assay because of the low yield obtained. Extracts were incubated with the cancer cell lines for 72 h, and peperomin A and the phytosterol mixture were incubated for 24, 48 and 72 h. After the incubation periods, 20 µL of MTT solution (5 mg/mL) was added to each well and incubated for 4 h. To dissolve the formazan crystals formed, 100 µL of DMSO was added to each well. The IC50 values were calculated from the plot of cancer cell growth versus the concentration of extracts/compounds.

[4] = test system: human breast adenocarcinoma (MCF-7); test: MTT cytotoxicity assay, MCF-7; format: cell-based; conditions: for IC50: Homo sapiens; for Selectivity index: ratio of mean IC50 in normal MCF10a over mean IC50 in MCF-7: Table 4
Text: as §1

[5] = test system: primary dermal fibroblasts cell line (HDFa); test: MTT cytotoxicity assay, normal HDFa; format: cell-based; conditions: Homo sapiens, normal cells
Text: as §1

[6] = test system: human mammary epithelial cell line (MCF10A); test: MTT cytotoxicity assay, normal MCF10A; format: cell-based; conditions: MCF-10A, normal cells
Text: as §1

[7] = test system: murine myelomonocytic leukaemia (WEHI-3); test: MTT cytotoxicity assay, WEHI-3; format: cell-based; conditions: Mus musculus
Text: as §1

[8] = test system: human hepatic cell line (WRL-68); test: MTT cytotoxicity assay, normal WRL-68; format: cell-based; conditions: normal cells
Text: as §1

HIV-1 IIIB = conditions: no reference given; cited from earlier work
C8166 cell line = conditions: no reference given; cited from earlier work

DPPH IC50 [1]	Structure (SMILES)	FRAP [2]	IC50 ([3]; HL-60, 24 h, 24 hr)	IC50 ([3]; HL-60, 48 h, 48hr)	IC50 ([3]; HL-60, 72 h, 72hr)	IC50 ([4]; MCF7, 24 h, 24 hr)	IC50 ([4]; MCF7, 48 h, 48hr)	IC50 ([4]; MCF7, 72 h, 72hr)	IC50 ([5]; 24 hr)	IC50 ([5]; 48hr)	IC50 ([5]; 72hr)	IC50 ([6]; 24 hr)	IC50 ([6]; 48hr)	IC50 ([6]; 72hr)	IC50 ([7]; 24 hr)	IC50 ([7]; 48hr)	IC50 ([7]; 72hr)	IC50 ([8]; WRL68, 24 hr)	IC50 ([8]; WRL68, 48hr)	IC50 ([8]; WRL68, 72hr)	further results
286.64 ± 8.54 µg/mL	Cc1cc(C(C)(C)C)c(O)c(C(C)(C)C)c1 [BHT, butylated hydroxytoluene]	1738.80 ± 9.53 M Fe(II)/g																			
536.61 ± 6.00 µg/mL	COc1cc(C(c2cc(OC)c3c(c2)OCO3)[C@@H]2COC(=O)[C@H]2C)cc2c1OCO2 [Peperomin A]	20.79 ± 0.66 M Fe(II)/g	43.62 ± 0.1 µg/mL (≈ 105 µM)	26.34 ± 0.26 µg/mL (≈ 63.6 µM)	16.4 ± 0.62 µg/mL (≈ 39.5 µM)	40.7 ± 0.92 µg/mL (≈ 98.3 µM)	9.22 ± 0.28 µg/mL (≈ 22.2 µM)	5.58 ± 0.47 µg/mL (≈ 13.5 µM)	> 50 µg/mL	> 50 µg/mL	> 50 µg/mL	> 50 µg/mL	> 50 µg/mL	> 50 µg/mL	20.1 ± 0.46 µg/mL (≈ 48.5 µM)	18.7 ± 0.73 µg/mL (≈ 45.1 µM)	4.62 ± 0.03 µg/mL (≈ 11.1 µM)	> 50 µg/mL	> 50 µg/mL	41.5 ± 0.54 µg/mL (≈ 100 µM)	selectivity index values for cancer cells [4]: greater than 1; Selectivity index: ratio of mean IC50 in normal MCF10a over mean IC50 in MCF-7 ([4]; 24 hr): 1.1; Selectivity index: ratio of mean IC50 in normal MCF10a over mean IC50 in MCF-7 ([4]; 48hr): 1.3; Selectivity index: ratio of mean IC50 in normal MCF10a over mean IC50 in MCF-7 ([4]; 72hr): 7.4; inhibitory effects on HIV-1 IIIB growth in C8166 cells (cytopathic effect, CPE) (HIV-1 IIIB): moderate inhibitory effects; free radical scavenging activity (in words) [1]: weak; ferric reducing power (in words) [2]: weak; cytotoxic activity against the C8166 cell line (C8166 cell line): cytotoxic activity
20.40 ± 0.50 µg/mL	O=C1O[C@H]([C@@H](O)CO)C(O)=C1O [VIT C, ascorbic acid]	2603.90 ± 10.54 M Fe(II)/g																			

Further lines, the molecule ahead of its results:

Structure (SMILES)	DPPH IC50 [1]	FRAP [2]	IC50 ([3]; HL-60, 24 h, 24 hr)	IC50 ([3]; HL-60, 48 h, 48hr)	IC50 ([3]; HL-60, 72 h, 72hr)	IC50 ([4]; MCF7, 24 h, 24 hr)	IC50 ([4]; MCF7, 48 h, 48hr)	IC50 ([4]; MCF7, 72 h, 72hr)	IC50 ([5]; 24 hr)	IC50 ([5]; 48hr)	IC50 ([5]; 72hr)	IC50 ([6]; 24 hr)	IC50 ([6]; 48hr)	IC50 ([6]; 72hr)	IC50 ([7]; 24 hr)	IC50 ([7]; 48hr)	IC50 ([7]; 72hr)	IC50 ([8]; WRL68, 24 hr)	IC50 ([8]; WRL68, 48hr)	IC50 ([8]; WRL68, 72hr)	further results
CC(=O)O[C@H]1C(=O)[C@@]2(C)[C@H]([C@H](OC(=O)c3ccccc3)[C@]3(O)C[C@H](OC(=O)[C@H](O)[C@@H](NC(=O)c4ccccc4)c4ccccc4)C(C)=C1C3(C)C)[C@]1(OC(C)=O)CO[C@@H]1C[C@@H]2O [Paclitaxel]			12.7 ± 0.4 µg/mL (≈ 14.9 µM)	8.67 ± 0.76 µg/mL (≈ 10.2 µM)	5.13 ± 0.32 µg/mL (≈ 6.01 µM)	5.87 ± 0.19 µg/mL (≈ 6.87 µM)	4.47 ± 0.03 µg/mL (≈ 5.23 µM)	3.56 ± 0.34 µg/mL (≈ 4.17 µM)	> 50 µg/mL	> 50 µg/mL	> 50 µg/mL	> 50 µg/mL	> 50 µg/mL	> 50 µg/mL	3.16 ± 0.02 µg/mL (≈ 3.7 µM)	2.15 ± 0.02 µg/mL (≈ 2.52 µM)	1.9 ± 0.9 µg/mL (≈ 2.23 µM)	> 50 µg/mL	> 50 µg/mL	> 50 µg/mL	IC50 ([4]; MCF7, 72 h, 72 hr, Table 3): 3 ± 0.07 µg/mL (≈ 3.51 µM)
CC[C@]1(O)C[C@@H]2CN(CCc3c([nH]c4ccccc34)[C@@](C(=O)OC)(c3cc4c(cc3OC)N(C)[C@H]3[C@@](O)(C(=O)OC)[C@H](OC(C)=O)[C@]5(CC)C=CCN6CC[C@]43[C@@H]65)C2)C1 [Vinblastine]			5.91 ± 0.31 µg/mL (≈ 7.29 µM)	4.81 ± 0.19 µg/mL (≈ 5.93 µM)	2.36 ± 0.08 µg/mL (≈ 2.91 µM)	14.6 ± 0.16 µg/mL (≈ 18 µM)	7.57 ± 0.5 µg/mL (≈ 9.33 µM)	5.16 ± 0.42 µg/mL (≈ 6.36 µM)	> 50 µg/mL	> 50 µg/mL	> 50 µg/mL	> 50 µg/mL	> 50 µg/mL	> 50 µg/mL	4.11 ± 0.06 µg/mL (≈ 5.07 µM)	3.56 ± 0.07 µg/mL (≈ 4.39 µM)		> 50 µg/mL	> 50 µg/mL	> 50 µg/mL	IC50 ([3]; HL-60, 72 h, 72 hr, Table 3): 5 ± 0.01 µg/mL (≈ 6.17 µM); IC50 ([7]; 72 hr, Table 3): 0.57 ± 0.035 µg/mL (≈ 0.703 µM)
COc1cc([C@@H](c2cc(OC)c3c(c2)OCO3)[C@@H]2COC(=O)[C@H]2C)cc(OC)c1OC [peperomin B]																					inhibitory effects on HIV-1 IIIB growth in C8166 cells (cytopathic effect, CPE) (HIV-1 IIIB): moderate inhibitory effects; cytotoxic activity against the C8166 cell line (C8166 cell line): cytotoxic activity

— publication PMC5994333, “-Chemical profiling and biological activity of Peperomia blanda (Jacq.) Kunth” (PeerJ, 2018)
